Legend:
[1] = test system: male Japanese white rabbits; assay: Reversing and ablating atherosclerosis in rabbits with established atherosclerosis model (percentage of aortic plaque area); format: in vivo; settings: 6 weeks modelling then 3 months treatment, oils 1.5 g/kg/d, simvastatin 2.0 mg/kg/d, MOD 45.8±9.9%, MBF 59.9±8.9%
Excerpt: Forty-eight 4-month-old male Japanese white rabbits weighing 2.0±0.2 kg were selected and randomly divided into 2 groups, as follows: • Normal diet group (Negative control group, NC): 8 male Japanese white rabbits, fed with basic feed; • Atherosclerosis modeling group (MOD): 40 male Japanese white rabbits, fed with high fat fortified basic diet, and the dose of peanut oil was 1.5 g/kg/d (converted based on adult and animal weight, body surface area and Km factor);
The area of atherosclerotic plaque and the total area of aortic expansion is measured, and the percentage of plaque area is calculated.
Three months later, all animals are euthanized.
After the animals are killed, the aorta is removed from the aortic valve orifice to the beginning of the common iliac artery, the aortic wall is cut longitudinally along the midline of the abdomen, fixed with 10% formaldehyde solution, and the distribution map of aortic lesions is drawn according to the aorta. The area of atherosclerotic plaque and the total area of aortic expansion is measured, and the percentage of plaque area is calculated.

[2] = test system: male Japanese white rabbits; assay: Inhibition of formation of atherosclerosis in rabbits on high-fat diet (percentage of aortic plaque area); format: in vivo; settings: high-fat diet 6 weeks, oils 1.5 g/kg/d, simvastatin 2.0 mg/kg/d, PC group 42.6±9.7%
Excerpt: High fat fortified feed: Each rabbit is fed with 0.5 grams of cholesterol, 2.0 grams of lard, and 20 grams of egg yolk daily.
Feed for 6 weeks according to the above grouping and feeding conditions, and then execute the animals. After the animals are killed, the aorta is removed from the aortic valve orifice to the beginning of the common iliac artery, the aortic wall is cut longitudinally along the midline of the abdomen, fixed with 10% formaldehyde solution, and the distribution map of aortic lesions is drawn according to the aorta. The area of atherosclerotic plaque and the total area of aortic expansion are measured, and the percentage of plaque area is calculated.

Which “Plaque area (percentage of atherosclerotic plaque in aortic area)” value [1] does the source give for `CCC(C)(C)C(=O)O[C@H]1C[C@@H](C)C=C2C=C[C@H](C)[C@H](CC[C@@H]3C[C@@H](O)CC(=O)O3)[C@H]21` [simvastatin] here?
Its value is 47.1±8.3%.

What about the “Plaque area (percentage of atherosclerotic plaque in aortic area)” value [2] of the same compound?
Its value is 20.2±4.2%.
